In ChEMBL document CHEMBL5291721, “A preclinical secondary pharmacology resource illuminates target-adverse drug reaction associations of marketed drugs” (Nat Commun, 2023) one finds AC50 data, which are given here for six compounds.

For assay [1], the target named is Beta-1 adrenergic receptor (Homo sapiens, UniProt P08588). The class given is functional.
Assay [2] addresses T1, Type-1 angiotensin II receptor (Homo sapiens, UniProt P30556).
T1 sequence (P30556 whole entry): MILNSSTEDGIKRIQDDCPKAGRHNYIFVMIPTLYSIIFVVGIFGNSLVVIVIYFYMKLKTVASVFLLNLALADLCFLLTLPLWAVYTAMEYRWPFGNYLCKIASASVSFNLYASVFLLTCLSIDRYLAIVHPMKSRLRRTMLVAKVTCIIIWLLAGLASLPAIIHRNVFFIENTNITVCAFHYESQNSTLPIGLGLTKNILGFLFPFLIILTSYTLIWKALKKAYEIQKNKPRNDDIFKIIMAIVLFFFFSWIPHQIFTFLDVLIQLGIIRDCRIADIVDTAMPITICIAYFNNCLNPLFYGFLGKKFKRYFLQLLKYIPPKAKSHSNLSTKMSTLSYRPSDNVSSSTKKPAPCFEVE

The next assay concerns the target T2, B2 bradykinin receptor (Homo sapiens, UniProt P30411).
T2 sequence (P30411 whole entry): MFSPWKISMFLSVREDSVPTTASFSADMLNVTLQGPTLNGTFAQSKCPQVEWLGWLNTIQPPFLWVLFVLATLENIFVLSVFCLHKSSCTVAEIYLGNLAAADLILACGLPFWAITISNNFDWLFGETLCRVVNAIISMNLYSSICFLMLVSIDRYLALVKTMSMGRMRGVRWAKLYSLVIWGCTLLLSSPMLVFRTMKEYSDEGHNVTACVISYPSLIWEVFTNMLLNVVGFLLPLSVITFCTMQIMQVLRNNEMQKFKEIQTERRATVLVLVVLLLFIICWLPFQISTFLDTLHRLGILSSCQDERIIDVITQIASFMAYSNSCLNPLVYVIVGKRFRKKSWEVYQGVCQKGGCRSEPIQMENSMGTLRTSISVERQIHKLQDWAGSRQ

Assay [3] concerns the target T3, Muscarinic acetylcholine receptor M1 (Homo sapiens, UniProt P11229).
T3 sequence (P11229 whole entry): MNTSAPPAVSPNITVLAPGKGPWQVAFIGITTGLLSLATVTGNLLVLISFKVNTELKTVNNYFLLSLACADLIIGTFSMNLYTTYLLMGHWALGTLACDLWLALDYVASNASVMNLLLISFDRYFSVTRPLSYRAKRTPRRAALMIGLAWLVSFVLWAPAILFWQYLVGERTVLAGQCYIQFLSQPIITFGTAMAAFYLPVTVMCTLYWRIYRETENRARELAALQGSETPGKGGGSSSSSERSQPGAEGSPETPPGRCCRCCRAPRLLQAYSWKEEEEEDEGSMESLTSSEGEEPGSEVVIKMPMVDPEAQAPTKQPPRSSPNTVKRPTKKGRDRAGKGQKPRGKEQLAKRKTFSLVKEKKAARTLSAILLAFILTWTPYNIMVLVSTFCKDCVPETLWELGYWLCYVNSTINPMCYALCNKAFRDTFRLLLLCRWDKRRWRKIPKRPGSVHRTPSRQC
The class given is functional.

Assay [4] addresses T4, Muscarinic acetylcholine receptor M2 (Homo sapiens, UniProt P08172).
T4 sequence (P08172 whole entry): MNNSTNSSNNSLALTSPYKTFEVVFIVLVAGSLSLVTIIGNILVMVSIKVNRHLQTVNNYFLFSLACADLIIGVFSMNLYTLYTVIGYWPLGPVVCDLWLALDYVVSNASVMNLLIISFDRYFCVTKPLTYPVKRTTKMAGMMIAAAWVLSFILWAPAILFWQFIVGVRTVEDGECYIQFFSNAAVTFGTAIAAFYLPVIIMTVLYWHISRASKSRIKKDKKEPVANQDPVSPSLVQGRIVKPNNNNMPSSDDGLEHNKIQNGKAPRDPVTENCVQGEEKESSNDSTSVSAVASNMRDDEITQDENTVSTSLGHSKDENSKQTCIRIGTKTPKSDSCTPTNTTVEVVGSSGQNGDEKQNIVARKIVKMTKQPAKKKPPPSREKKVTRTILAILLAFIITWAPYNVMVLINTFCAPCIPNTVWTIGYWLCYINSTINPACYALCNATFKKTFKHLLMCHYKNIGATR
The format is functional, cell-based.

The target of assay [5] is Neuronal acetylcholine receptor subunit alpha-4 (Homo sapiens, UniProt P43681).
Sequence of Neuronal acetylcholine receptor subunit alpha-4 (P43681 whole entry): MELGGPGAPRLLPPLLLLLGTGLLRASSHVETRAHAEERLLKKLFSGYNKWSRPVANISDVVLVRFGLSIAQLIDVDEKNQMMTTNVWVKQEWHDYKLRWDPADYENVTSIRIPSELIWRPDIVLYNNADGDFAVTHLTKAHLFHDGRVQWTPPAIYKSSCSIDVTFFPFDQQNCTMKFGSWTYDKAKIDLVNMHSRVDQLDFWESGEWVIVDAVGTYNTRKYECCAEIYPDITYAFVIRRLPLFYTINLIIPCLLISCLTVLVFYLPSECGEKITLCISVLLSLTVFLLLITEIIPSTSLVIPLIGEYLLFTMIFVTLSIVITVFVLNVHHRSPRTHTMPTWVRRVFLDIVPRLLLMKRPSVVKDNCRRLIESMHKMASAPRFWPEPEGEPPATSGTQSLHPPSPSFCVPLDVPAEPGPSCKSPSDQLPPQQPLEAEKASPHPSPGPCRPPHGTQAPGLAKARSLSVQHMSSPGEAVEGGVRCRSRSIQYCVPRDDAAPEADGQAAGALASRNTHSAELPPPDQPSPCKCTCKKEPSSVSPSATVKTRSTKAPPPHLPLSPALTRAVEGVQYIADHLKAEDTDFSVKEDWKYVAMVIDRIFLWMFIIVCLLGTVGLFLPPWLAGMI
Assay [6] concerns the target Gamma-aminobutyric acid receptor subunit alpha-1 (Rattus norvegicus, UniProt P62813). The format is functional.
Assay [7] concerns the target T5, 5-hydroxytryptamine receptor 2C (Homo sapiens, UniProt P28335).
T5 sequence (P28335 whole entry): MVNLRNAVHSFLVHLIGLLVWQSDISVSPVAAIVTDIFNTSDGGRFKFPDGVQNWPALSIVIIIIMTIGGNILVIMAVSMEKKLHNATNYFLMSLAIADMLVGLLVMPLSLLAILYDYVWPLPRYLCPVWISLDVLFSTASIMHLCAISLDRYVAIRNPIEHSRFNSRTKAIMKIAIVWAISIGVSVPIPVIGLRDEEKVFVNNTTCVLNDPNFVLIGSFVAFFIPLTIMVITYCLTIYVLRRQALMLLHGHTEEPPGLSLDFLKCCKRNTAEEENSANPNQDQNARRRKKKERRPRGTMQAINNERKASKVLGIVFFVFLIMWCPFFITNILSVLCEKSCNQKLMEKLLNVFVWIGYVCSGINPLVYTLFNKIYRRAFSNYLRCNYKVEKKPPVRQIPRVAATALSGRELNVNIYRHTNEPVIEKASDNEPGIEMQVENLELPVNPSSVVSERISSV

For assay [8], the target named is Voltage-gated inwardly rectifying potassium channel KCNH2 (Homo sapiens, UniProt Q12809). The format is functional. The following applies: read-out: AC50.
Sequence of Voltage-gated inwardly rectifying potassium channel KCNH2 (Q12809 whole entry): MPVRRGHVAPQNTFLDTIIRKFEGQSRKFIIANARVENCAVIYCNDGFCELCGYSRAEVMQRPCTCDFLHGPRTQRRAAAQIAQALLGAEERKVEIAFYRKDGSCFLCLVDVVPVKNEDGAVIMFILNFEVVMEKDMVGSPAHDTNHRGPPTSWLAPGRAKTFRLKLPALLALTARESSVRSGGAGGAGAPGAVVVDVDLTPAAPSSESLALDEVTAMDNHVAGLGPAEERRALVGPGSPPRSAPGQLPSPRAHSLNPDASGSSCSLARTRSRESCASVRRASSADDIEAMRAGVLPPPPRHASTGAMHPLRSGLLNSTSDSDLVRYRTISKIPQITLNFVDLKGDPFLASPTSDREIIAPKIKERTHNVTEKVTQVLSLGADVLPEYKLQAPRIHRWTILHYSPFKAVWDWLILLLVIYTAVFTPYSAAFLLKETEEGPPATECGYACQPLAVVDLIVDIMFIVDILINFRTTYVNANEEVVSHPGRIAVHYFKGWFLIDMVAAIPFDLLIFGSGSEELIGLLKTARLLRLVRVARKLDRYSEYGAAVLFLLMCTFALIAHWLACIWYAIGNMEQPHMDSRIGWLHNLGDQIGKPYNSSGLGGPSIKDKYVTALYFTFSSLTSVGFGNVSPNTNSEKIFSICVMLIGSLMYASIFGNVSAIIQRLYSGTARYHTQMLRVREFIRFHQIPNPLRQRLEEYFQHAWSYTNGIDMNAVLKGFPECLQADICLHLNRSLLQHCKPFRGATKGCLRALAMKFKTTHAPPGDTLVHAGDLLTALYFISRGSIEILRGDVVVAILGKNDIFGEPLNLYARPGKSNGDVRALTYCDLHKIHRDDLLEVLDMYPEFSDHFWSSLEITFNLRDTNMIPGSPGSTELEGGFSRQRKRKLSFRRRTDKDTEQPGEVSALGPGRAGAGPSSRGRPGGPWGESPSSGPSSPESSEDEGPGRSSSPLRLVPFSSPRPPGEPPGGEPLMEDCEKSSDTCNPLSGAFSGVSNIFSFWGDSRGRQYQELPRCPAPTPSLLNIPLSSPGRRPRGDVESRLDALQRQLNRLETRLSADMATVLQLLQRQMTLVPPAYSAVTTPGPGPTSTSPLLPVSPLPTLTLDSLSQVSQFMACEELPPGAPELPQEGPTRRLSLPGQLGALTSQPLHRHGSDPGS
In assay [9] the target is Kappa-type opioid receptor (Homo sapiens, UniProt P41145).
Sequence of Kappa-type opioid receptor (P41145 whole entry): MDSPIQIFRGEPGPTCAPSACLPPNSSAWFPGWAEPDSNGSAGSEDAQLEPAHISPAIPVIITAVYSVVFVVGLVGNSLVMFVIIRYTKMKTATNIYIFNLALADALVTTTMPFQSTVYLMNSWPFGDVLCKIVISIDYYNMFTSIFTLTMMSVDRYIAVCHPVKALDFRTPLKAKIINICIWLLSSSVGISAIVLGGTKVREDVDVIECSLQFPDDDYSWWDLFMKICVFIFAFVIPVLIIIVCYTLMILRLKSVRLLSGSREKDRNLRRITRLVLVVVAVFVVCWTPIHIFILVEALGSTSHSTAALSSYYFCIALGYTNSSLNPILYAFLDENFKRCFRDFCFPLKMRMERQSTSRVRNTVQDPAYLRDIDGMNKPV
The target in assay [10] is T6, Equilibrative nucleoside transporter 1 (Homo sapiens, UniProt Q99808).
T6 sequence (Q99808 whole entry): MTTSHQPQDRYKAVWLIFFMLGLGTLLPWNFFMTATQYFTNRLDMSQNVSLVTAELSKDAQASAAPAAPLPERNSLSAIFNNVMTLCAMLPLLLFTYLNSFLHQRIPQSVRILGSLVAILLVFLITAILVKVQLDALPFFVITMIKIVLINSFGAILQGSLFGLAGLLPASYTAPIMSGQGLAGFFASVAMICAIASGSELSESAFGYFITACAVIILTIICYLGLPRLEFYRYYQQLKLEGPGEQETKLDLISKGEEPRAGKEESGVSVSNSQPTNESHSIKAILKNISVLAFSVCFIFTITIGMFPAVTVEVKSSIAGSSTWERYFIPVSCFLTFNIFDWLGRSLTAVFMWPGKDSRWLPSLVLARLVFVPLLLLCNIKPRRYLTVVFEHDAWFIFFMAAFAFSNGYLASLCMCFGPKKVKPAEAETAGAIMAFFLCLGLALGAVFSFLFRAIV

Bounds are passed on as bounds.

As a reminder, the AC50 is the midpoint of the concentration-response curve, whichever way the signal moves.
Note: assay procedure not described here.

Sequence of Gamma-aminobutyric acid receptor subunit alpha-1 (P62813 whole entry): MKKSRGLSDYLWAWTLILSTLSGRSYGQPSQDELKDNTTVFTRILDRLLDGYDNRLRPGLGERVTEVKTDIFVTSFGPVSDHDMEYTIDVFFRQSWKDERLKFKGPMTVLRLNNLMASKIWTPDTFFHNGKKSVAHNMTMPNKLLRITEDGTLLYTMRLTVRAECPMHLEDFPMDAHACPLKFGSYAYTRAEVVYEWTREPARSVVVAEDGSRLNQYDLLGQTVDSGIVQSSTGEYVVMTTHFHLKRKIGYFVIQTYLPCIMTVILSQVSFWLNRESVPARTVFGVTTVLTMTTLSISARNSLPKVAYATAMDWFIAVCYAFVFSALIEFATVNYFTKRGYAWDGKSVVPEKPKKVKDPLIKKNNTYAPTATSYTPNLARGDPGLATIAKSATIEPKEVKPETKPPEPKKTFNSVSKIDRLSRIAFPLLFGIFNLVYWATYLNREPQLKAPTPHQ
Sequence of Beta-1 adrenergic receptor (P08588 whole entry): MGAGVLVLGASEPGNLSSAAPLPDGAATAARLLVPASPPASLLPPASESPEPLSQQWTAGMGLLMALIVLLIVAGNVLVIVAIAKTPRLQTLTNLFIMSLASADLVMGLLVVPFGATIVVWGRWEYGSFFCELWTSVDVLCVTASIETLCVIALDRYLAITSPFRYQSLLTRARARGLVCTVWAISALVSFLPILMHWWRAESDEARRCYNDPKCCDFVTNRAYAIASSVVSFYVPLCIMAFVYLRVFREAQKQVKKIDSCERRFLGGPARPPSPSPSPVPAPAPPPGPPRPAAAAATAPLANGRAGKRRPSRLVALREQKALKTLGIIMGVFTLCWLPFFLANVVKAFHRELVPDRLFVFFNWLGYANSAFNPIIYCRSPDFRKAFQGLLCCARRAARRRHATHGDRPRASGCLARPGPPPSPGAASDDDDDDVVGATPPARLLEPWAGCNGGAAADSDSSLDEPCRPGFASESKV

`N[C@@H](Cc1cc(I)c(Oc2cc(I)c(O)c(I)c2)c(I)c1)C(=O)O` [LEVOTHYROXINE]: the AC50 in assay [1] was more than 30 µM; in assay [2], more than 30 µM; on B2 bradykinin receptor, more than 10 µM; in assay [3], more than 30 µM; in [4], more than 30 µM; in assay [5] it was more than 30 µM. The AC50 in assay [6], in assay [7], in assay [8], in assay [9] and in [10] was more than 30 µM in each case.
In the case of `CNC1(C)C2CCC(C2)C1(C)C` (stereo unspecified) [MECAMYLAMINE], the concentration at half-maximal activity (AC50) (in assay [1]; in assay [2]; at B2 bradykinin receptor; in [3]; in assay [4]; in [5]) was more than 10 µM each time. Besides, the AC50 in assay [6] is more than 10 µM; in assay [7], more than 30 µM; in assay [8], more than 30 µM; in assay [9], more than 10 µM; in [10], more than 10 µM.
As to `CC(=O)SCC(Cc1ccccc1)C(=O)NCC(=O)OCc1ccccc1` (stereo unspecified) [RACECADOTRIL], the half-maximal activity concentration (AC50) (in [1]; in assay [2]; on B2 bradykinin receptor; in assay [3]; in assay [4]; in assay [5]) was more than 30 µM each time. Further, the AC50 in [6] was more than 30 µM; in [7] it was more than 30 µM; in [8], more than 30 µM; in assay [9], 8.6 µM; in assay [10], more than 30 µM.
With `CCOc1ccccc1OCCN[C@H](C)Cc1ccc(OC)c(S(N)(=O)=O)c1` [TAMSULOSIN], the AC50 was 2.5 µM in assay [1]; more than 30 µM in assay [2]; more than 30 µM at B2 bradykinin receptor; more than 10 µM in [3]; more than 10 µM in assay [4]; more than 10 µM in assay [5]. Besides, the AC50 was more than 10 µM in [6]; more than 30 µM in [7]; 6.95 µM in assay [8]; more than 30 µM in assay [9]; more than 30 µM in [10].
For the compound `C[C@H](Cn1cnc2c(N)ncnc21)OCP(=O)(O)O` [TENOFOVIR ANHYDROUS], the AC50 (in assay [1]; in assay [2]; on B2 bradykinin receptor; in assay [3]; in assay [4]; in assay [5]) was more than 30 µM in each case. Besides, the AC50 in assay [6], in assay [7], in assay [8], in assay [9] and in [10] was more than 30 µM throughout.
On to `CN(C)CCN(Cc1ccccc1)c1ccccn1` [TRIPELENNAMINE], for which the AC50 in [1] is more than 30 µM; in assay [2], more than 10 µM; at B2 bradykinin receptor, more than 10 µM; in [3] it was more than 10 µM; in assay [4], more than 10 µM; in assay [5] it was more than 10 µM. The AC50 in assay [6] was more than 10 µM; in assay [7] it was more than 10 µM; in assay [8], 2.8 µM; in assay [9], 6.25 µM; in assay [10], more than 30 µM.
